This passage reports TGI results from PubChem BioAssay (NCI).

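Protocol summary: plate cells (96-well), add compound at 5 concentrations, incubate 48 h, interpolate endpoints linearly. TGI: concentration producing complete growth inhibition.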

Holding throughout (assay): inhibition of tumour cell growth, NCI panel, 48 h
Assay [1] deals with ACHN renal.
Assay [2] relates to CAKI-1 renal.
Assay [3] concerns EKVX NSCLC.
In assay [4] the test system is HCC-2998 colon.
The subject of assay [5] is HL-60(TB) leukemia.
The subject of assay [6] is HT29 colon.
The subject of assay [7] is K-562 leukemia.
Assay [8] concerns MDA-N.
For assay [9], the system named is NCI-H226 lung.
For assay [10], the system named is NCI-H23 lung.
The subject of assay [11] is NCI-H522 lung.
The test system of assay [12] is NCI/ADR-RES ovarian.
Assay [13] deals with OVCAR-5 ovarian.
The test system of assay [14] is OVCAR-8 ovarian.
For assay [15], the system named is RXF 393 renal.
Assay [16] deals with SK-MEL-28 melanoma.
Assay [17] relates to SNB-75 CNS.
For assay [18], the system named is TK-10 renal.
Assay [19] concerns U251 CNS.
The test system of assay [20] is PC-3 prostate.

For the molecule `CC1=CC(=O)c2ccc3c4ccccc4n(C)c3c2C1=O`, the TGI in [1] was more than 100 µM; in assay [2] it was more than 67.5 µM; in [3], more than 62.7 µM; in assay [4], more than 100 µM; in [5], more than 72.3 µM; in [6] it was more than 31.6 µM. The TGI in [7] was more than 100 µM; in assay [8], 33.1 µM; in [9], more than 100 µM; in assay [10], more than 92 µM; in [11] it was 78.9 µM; in [12], more than 100 µM. The TGI in assay [13], in assay [14], in assay [15], in assay [16], in [17] and in [18] was more than 100 µM in each case. Further, the TGI in assay [19] is more than 100 µM.
`Fc1nc(-c2c3ccccc3c3sc4ccccc4n23)nc(N2CCOCCOCCOCCOCC2)n1`: the TGI in assay [1], in assay [2], in assay [3], in assay [4], in assay [6] and in assay [7] was more than 100 µM in each case. Besides, the TGI in assay [8], in assay [9], in assay [10], in assay [11], in assay [12] and in assay [13] was more than 100 µM throughout. For the same molecule, the TGI in assay [14] was more than 100 µM; in assay [20], more than 100 µM; in assay [15], 51.6 µM; in assay [16], more than 100 µM; in assay [17] it was 5.87 µM; in [18], more than 100 µM. Also, the TGI in assay [19] is more than 100 µM.
Consider `CC(C)CC1C(=O)OC(C)(C)OC1=O`, for which the TGI in assay [1], in assay [2], in assay [3], in [4], in [6] and in [7] was more than 100 µM in each case. The TGI in assay [8], in assay [9], in [10], in assay [11], in [12] and in assay [13] was more than 100 µM each time. For the same molecule, the TGI in assay [14], in [20], in [15], in [16], in [17] and in assay [18] was more than 100 µM throughout. In assay [19], this molecule returned a TGI of more than 100 µM.
Regarding `O=C(N/N=C\c1ccc([N+](=O)[O-])cc1)Nc1ccc2ccccc2c1`, the TGI was more than 100 µM in [1]; more than 100 µM in [2]; more than 100 µM in assay [3]; 62.9 µM in assay [4]; 72.2 µM in assay [6]; more than 100 µM in assay [7]. The TGI is more than 100 µM in assay [8]; more than 100 µM in [9]; more than 100 µM in assay [10]; 68.4 µM in assay [11]; more than 100 µM in assay [12]; more than 100 µM in [13]. The TGI in [14] was more than 100 µM; in assay [20] it was more than 100 µM; in [15], more than 100 µM; in [16], more than 100 µM; in assay [17] it was 68.1 µM; in assay [18] it was 91.3 µM. The same molecule registered a TGI in [19] of 45.8 µM.
As to `N=c1oc2ccccc2cc1C(=O)Nc1ccccn1`, the TGI in assay [1], in assay [2], in assay [3], in [4], in assay [5] and in [6] was more than 100 µM throughout. For the same molecule, the TGI in [7], in assay [8], in assay [9], in [10], in assay [12] and in assay [13] was more than 100 µM each time. The TGI in assay [14], in assay [15], in assay [16], in [17] and in assay [19] was more than 100 µM throughout.
On to `COc1ccc(/C=N/n2c(Cc3ccccc3)n[nH]c2=O)c(OC)c1`, for which the TGI is more than 56.5 µM in [1]; more than 100 µM in assay [2]; 99.4 µM in [3]; more than 100 µM in assay [4]; more than 64.5 µM in assay [6]; more than 100 µM in [7]. Moreover, the TGI in assay [8] was more than 100 µM; in assay [9] it was more than 80.9 µM; in [10], more than 65.4 µM; in assay [11], more than 100 µM; in assay [12] it was 86.5 µM; in assay [13], more than 100 µM. The TGI is more than 59.6 µM in assay [14]; more than 100 µM in [20]; more than 63.2 µM in assay [15]; more than 100 µM in assay [16]; 28.6 µM in assay [17]; 84.1 µM in [18]. In addition, in assay [19], the TGI is more than 65.1 µM.
Turning to `CC1(C)C2CCC1(C)C(NC(=O)COCCOCC(N)=O)C2` (stereo unspecified), the TGI in [1], in [2], in assay [3], in [4], in assay [5] and in assay [6] was more than 100 µM in each case. Also, the TGI in [7], in [8], in assay [9], in assay [10], in assay [11] and in assay [13] was more than 100 µM throughout. The TGI in assay [14], in assay [20], in assay [15], in [16], in [17] and in [18] was more than 100 µM throughout. The same molecule showed a TGI in [19] of more than 100 µM.
